This experiment concerns the target T1, Purine nucleoside phosphorylase (Homo sapiens, UniProt P00491).
T1 sequence (P00491 whole entry): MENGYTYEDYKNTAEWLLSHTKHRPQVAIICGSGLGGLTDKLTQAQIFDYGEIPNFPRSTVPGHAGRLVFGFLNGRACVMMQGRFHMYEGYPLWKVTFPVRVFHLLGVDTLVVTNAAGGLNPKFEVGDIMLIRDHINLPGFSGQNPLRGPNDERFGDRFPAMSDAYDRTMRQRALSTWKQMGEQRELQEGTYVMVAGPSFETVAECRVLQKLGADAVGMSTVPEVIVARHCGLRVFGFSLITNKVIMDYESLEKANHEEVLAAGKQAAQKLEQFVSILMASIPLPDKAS
The experiment in a line: Inhibition of human purine nucleoside phosphorylase.

pIC50: −log10 of the molar value.

Broadly, the pIC50 is −log10 of the IC50, conventionally taken in molar units. The molecule `O=c1[nH]cnc2cc([C@@H]3N[C@H](CO)[C@@H](O)[C@H]3O)[nH]c12` gave a pIC50 of 7.00. `O=c1[nH]cnc2c([C@@]3(CO)NC[C@H](O)[C@@H]3O)c[nH]c12` showed a negative logarithm of the IC50 (pIC50) of 7.00. Next, `O=C(O)c1[nH]c2c(=O)[nH]cnc2c1[C@@H]1N[C@H](CO)[C@@H](O)[C@H]1O`: 7.00.

The values are drawn from ChEMBL document CHEMBL1151893, “Synthesis of analogs of forodesine HCl, a human purine nucleoside phosphorylase inhibitor-Part I” (Bioorg Med Chem Lett, 2009).
